According to ChEMBL document CHEMBL1201862, “PubChem BioAssay data set” (2004):
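Five compound concentrations were applied to cells in 96-well plates for 48 hours; endpoints were derived by simple linear interpolation of the resulting dose-response curve. GI50: concentration for 50% inhibition of growth.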 The source made the active and inactive calls. No stated cut-off is given here; in the data, active = GI50 up to about 1.1 µM and inactive = higher.

Experiments:
Assay in all cases: NCI anticancer screen, dose series, 48 h
[1] = test system: ACHN
[2] = test system: Malme-3M
[3] = test system: HCT-15
[4] = test system: SK-MEL-2
[5] = test system: SR
[6] = test system: NCI-H23
[7] = test system: NCI-H522
[8] = test system: T47D
[9] = test system: EKVX
[10] = test system: OVCAR-5
[11] = test system: SN12C
[12] = test system: U-251
[13] = test system: UACC-62
[14] = test system: A498
[15] = test system: MOLT-4
[16] = test system: SNB-19
[17] = test system: UACC-257
[18] = test system: NCI-H460
[19] = test system: HCC 2998
[20] = test system: SW-620

Measured: GI50

CSc1ccc(NC(=O)C2CCCCC2C(=O)O)cc1 (stereo not given)
> 100 µM: [3]
inactive: [1] > 100 µM | [2] > 100 µM | [4] > 100 µM | [5] > 100 µM | [6] > 100 µM | [7] > 100 µM | [8] > 100 µM | [9] > 100 µM | [10] > 100 µM | [11] > 100 µM | [12] > 100 µM | [13] > 100 µM | [14] > 100 µM | [15] 38.6 µM | [16] > 100 µM | [17] > 100 µM | [18] > 100 µM | [19] > 100 µM | [20] > 100 µM

COC(=O)c1ccccc1C1CN=NC12Cc1cc(C)ccc1C2=O (stereo not given)
> 100 µM: [3]
inactive: [1] > 100 µM | [2] > 100 µM | [4] > 100 µM | [5] > 100 µM | [6] > 100 µM | [7] 63.8 µM | [8] > 100 µM | [9] > 100 µM | [10] > 100 µM | [11] > 100 µM | [12] > 100 µM | [13] > 100 µM | [14] > 100 µM | [15] > 100 µM | [16] > 100 µM | [17] > 100 µM | [18] > 100 µM | [19] > 100 µM | [20] > 100 µM

OCc1ccc(-c2ccc(-c3ccc(CO)s3)o2)s1
inactive: [1] 11.3 µM | [2] 57 µM | [4] 23.9 µM | [5] 3.6 µM | [6] 17.9 µM | [7] 29.2 µM | [9] 26.3 µM | [11] 5.13 µM | [15] 3.21 µM | [16] 28.8 µM
8.09 µM: [3]
active: [8] 0.31 µM | [10] 0.02 µM | [12] 0.0646 µM | [13] 0.0142 µM | [14] 0.0151 µM | [17] 0.0254 µM | [18] 0.0557 µM | [19] 0.394 µM | [20] 0.224 µM

O=c1[nH]/c(=C/c2ccc(OCc3ccccc3)cn2)c(=O)[nH]/c1=C/c1ccc([N+](=O)[O-])cc1
inactive: [1] > 94.6 µM | [2] > 100 µM | [4] > 100 µM | [5] > 58.3 µM | [6] > 100 µM | [7] > 100 µM | [8] > 100 µM | [9] > 100 µM | [10] > 100 µM | [11] > 100 µM | [12] > 65.3 µM | [13] > 100 µM | [14] 43 µM | [15] > 63.1 µM | [16] > 64.7 µM | [17] > 100 µM | [18] > 100 µM | [19] > 100 µM | [20] > 100 µM
> 100 µM: [3]

CC(=O)C1=C(O)/C(=C\c2ccco2)OC1=O
> 10 µM: [3]
inactive: [1] > 10 µM | [2] > 10 µM | [4] > 10 µM | [5] > 10 µM | [6] > 10 µM | [7] > 10 µM | [8] > 10 µM | [9] > 10 µM | [10] > 10 µM | [11] > 10 µM | [12] > 10 µM | [13] > 10 µM | [14] > 10 µM | [15] > 10 µM | [16] > 10 µM | [17] > 10 µM | [18] > 10 µM | [19] > 10 µM | [20] > 10 µM

C=CCNC1=C2C[C@@H](C)C[C@@H](OC)C(OC(=O)CCCN(C)C)[C@H](C)/C=C(\C)[C@@H](OC(N)=O)[C@H](OC)/C=C\C=C(/C)C(=O)NC(=CC1=O)C2=O (stereo not given in full)
inactive: [1] 7.48 µM | [2] 4.16 µM | [4] 12.6 µM | [5] 2.59 µM | [6] 6.84 µM | [7] 8.07 µM | [8] 11.5 µM | [9] 13.1 µM | [10] 15.2 µM | [11] 2.42 µM | [12] 10.6 µM | [13] 12.4 µM | [14] 13.8 µM | [15] 5.75 µM | [16] 13.8 µM | [17] 12.9 µM | [18] 2.99 µM | [19] 4.6 µM | [20] 4.48 µM
6.32 µM: [3]
